The values that follow come from publication PMC10362580, “Patient-derived organoids for precision oncology: a platform to facilitate clinical decision making” (BMC Cancer, 2023).

Series [1] deals with iPSCs-derived hepatocytes. The experiment in a line: Cytoskeleton disruption in hepatocytes (hepatotoxicity). In kind it is cell-based, human. To be noted: 0.1 ug/ml; hepatocytes from healthy donors, breast cancer and ovarian cancer patients. How it is done: To initiate hepatic differentiation, 10, 000 cells/cm^2 of passage 11 (P11) single cell suspension of iPSCs were seeded on matrigel coated plates in mTeSR™1 media and incubated overnight to obtain 95% confluent culture. Once cells reached > 95% confluence, RPMI media (Gibco) + 2% B27 supplement (Gibco) + 100 ng/ml Activin A (Gibco) + 3 µM CHIR99021 (Stem Cell Technologies) + 2% Matrigel (Corning) was added. Day 1 to 4: RPMI (Gibco) media + 2% B27 supplement (Gibco) + 100 ng/ml Activin A (Sigma). Day 5 to 10: RPMI (Gibco) media + 2% B27 supplement (Gibco) + 10 ng/ml bFGF (Sigma) + 20 ng/ml BMP4 (Sigma) + 0.5% DMSO (Sigma); Day 11 to 15: RPMI 1648 (Gibco) media + 2% B27 supplement (Gibco) + 20 ng/ml HGF (Sigma) + 0.5% DMSO (Sigma); Day 16 to 21: RPMI 1648 (Gibco) media + 2% B27 supplement (Gibco) + 20 ng/ml Oncostatin M (Gibco) + 100 nM Dexamethasone + 20 ng/ml HGF (Sigma) + 0.5% DMSO (Sigma). […] The presence of intracellular glycogen in hepatocytes was assessed by periodic acid–Schiff’s (PAS) staining and nuclei were counterstained with Mayer’s haematoxylin [42]. […]

Series [2] relates to Normal Organoid from normal adjacent tissue of breast cancer patients. The experiment in a line: PDO drug sensitivity and resistance testing (CellTiter-Glo), breast normal adjacent tissue organoids. In kind it is cell-based. The conditions noted are these: Homo sapiens. On the procedure:
(§1) Patient-derived tumor organoid was dissociated to single cells after seven days in culture. Epithelial Cells (from tumor and adjacent normal tissues) in combination with patient-derived isogenic adipose-derived Mesenchymal Stem Cells: iECs: MSCs (3:1:1) were seeded at a density of 5000 cells per well in 96-well clear bottom microplates. Multicellular organoids were allowed to grow for seven days. Breast and ovarian organoids were imaged every day and fed every alternate day with aforementioned Breast organoid medium and Ovarian organoid medium respectively. […] Organoids were subsequently incubated for […]; DMSO only- vehicle control and media only- negative control was used to set the baseline. After 0, 1, 7, 14 and 21 days ATP levels were measured with the CellTiter-Glo (Promega, Wisconsin, USA). All screenings were performed in triplicates. Data were analyzed using GraphPad Prism 6. Drug dose–response curves were visualized using […] analysis [setting: log (inhibitor) versus response, least-squares (ordinary) fit; top constraint 100%]. Concentrations where 50% cell viability (IC50-value) was reached were interpolated. The area under the curve (AUC) was approximated between the lowest and highest concentrations screened in the actual assay with the trapezoid rule for numerical integration. The dose–response curves were plotted as the percentage of the cell viability against the logarithm of drug concentrations in µM and were fitted to estimate the IC50.
(§2) We investigated BC organoids in response to standard medications in order to assess their potential as in vitro disease models. Towards this, PDOs were treated with doxorubicin and paclitaxel (commonly used chemotherapeutic drugs).
(§3) Following seven days incubation, organoid cultures were manually inspected using a phase-contrast microscope to check cell health and morphology prior to the addition of drugs. CellTiter-Glo® 2.0 determines the number of viable cells in a well, based on the quantification of ATP present, an indicator of metabolically viable cells. Total cell count was measured by CellTiter-Glo® 2.0, which causes cell lysis and produces a luminescence signal proportional to the amount of ATP present. Following completion of the above quality metrics, the data was normalized or the raw intensity data was used for curve-fitting. • Data normalization: Normalization was completed using the following calculation: (Raw intensity signal- Mean of positive control/ Mean of negative control-Mean positive control)
For orientation: ATP-based viability assays read luminescence as a measure of living cells.

For series [3], the system named is iPSCs-derived forebrain motor neurons. As to the kind of experiment: Neurite outgrowth assay (neurotoxicity). The conditions noted are these: 1 µM; neurons from healthy donor, breast cancer and ovarian cancer patient.
Protocol: Neurite outgrowth assay was performed to determine neurotoxicity. […] We tested neurotoxic chemotherapeutic drug on iPSC-derived neurons- control (healthy donor), breast cancer and ovarian cancer patients [46–48] using ImageXpress® Nano Automated Imaging System (Molecular Devices).
For series [4], the system named is patient-derived breast cancer organoids (Tumor Organoid). As to the kind of experiment: PDO drug sensitivity and resistance testing (CellTiter-Glo), breast tumor organoids. In kind it is cell-based, human. To be noted: for IC50: Homo sapiens. How it is done: as §1, §2, §3
Series [5] concerns Normal Organoid from normal adjacent tissue of ovarian cancer patients. As to the kind of experiment: PDO drug sensitivity and resistance testing (CellTiter-Glo), ovarian normal adjacent tissue organoids. Format: cell-based. The conditions noted are these: Homo sapiens. On the procedure: as §1
(§4) We developed a protocol to culture and expand organoids from tissues collected from ovarian cancer patients. […] We performed drug sensitivity and resistance test (DSRT) using 2 FDA-approved commonly used therapeutic drugs paclitaxel and doxorubicin. Depending on the properties of the individual drugs, the concentrations ranged from 0.001 µM to 1000 µM (Fig. 6).
as §3

Series [6] relates to patient-derived primary ovarian cancer organoids (Tumor Organoid). As to the kind of experiment: PDO drug sensitivity and resistance testing (CellTiter-Glo), ovarian tumor organoids. The conditions noted are these: for IC50: Homo sapiens. Format: cell-based, human. On the procedure:
as §1, §4, §3

Take `C/C1=C/C(=O)O[C@@H]2C[C@@H](CC[C@H](C)/C=C\C=C\CC1)O[C@@](O)([C@@H]1CSC(=O)N1)C2` [Latrunculin a]: the “Cytoskeleton disruption sensitivity, donor comparison” value in series [1] is “Ovarian cancer patient’s hepatocytes were found more sensitive to Latrunculin followed by breast cancer patient and healthy donor”.
Turning to `CC(=O)O[C@H]1C(=O)[C@@]2(C)[C@H]([C@H](OC(=O)c3ccccc3)[C@]3(O)C[C@H](OC(=O)[C@H](O)[C@@H](NC(=O)c4ccccc4)c4ccccc4)C(C)=C1C3(C)C)[C@]1(OC(C)=O)CO[C@@H]1C[C@@H]2O` [Paclitaxel], the IC50 in series [2] (168 h, Breast Cancer Sample 1, Normal Organoid, day 7, CTG) is 7.89 µM; in series [2] (168 h, Breast Cancer Sample 2, Normal Organoid, day 7, CTG), 947 µM; in series [2] (168 h, Breast Cancer Sample 3, Normal Organoid, day 7, CTG) it was 95.1 µM; in series [2] (336 h, Breast Cancer Sample 1, Normal Organoid, day 14, CTG), 8.53 µM; in series [2] (336 h, Breast Cancer Sample 2, Normal Organoid, day 14, CTG) it was 980 µM; in series [2] (336 h, Breast Cancer Sample 3, Normal Organoid, day 14, CTG), 100 µM. In addition, the IC50 came to 0.955 µM in series [2] (504 h, Breast Cancer Sample 1, Normal Organoid, day 21, CTG); 1000 µM in series [2] (504 h, Breast Cancer Sample 2, Normal Organoid, day 21, CTG); 10.2 µM in series [2] (504 h, Breast Cancer Sample 3, Normal Organoid, day 21, CTG); 83.6 µM in series [4] (168 h, Breast Cancer Sample 1, Tumor Organoid, day 7, CTG); 874 µM in series [4] (168 h, Breast Cancer Sample 2, Tumor Organoid, day 7, CTG); 849 µM in series [4] (168 h, Breast Cancer Sample 3, Tumor Organoid, day 7, CTG). The concentration for half-maximal inhibition (IC50) worked out at 96.4 µM in series [4] (336 h, Breast Cancer Sample 1, Tumor Organoid, day 14, CTG); 103 µM in series [4] (336 h, Breast Cancer Sample 2, Tumor Organoid, day 14, CTG); 975 µM in series [4] (336 h, Breast Cancer Sample 3, Tumor Organoid, day 14, CTG); 94.9 µM in series [4] (504 h, Breast Cancer Sample 1, Tumor Organoid, day 21, CTG); 107 µM in series [4] (504 h, Breast Cancer Sample 2, Tumor Organoid, day 21, CTG); 8.95 µM in series [4] (504 h, Breast Cancer Sample 3, Tumor Organoid, day 21, CTG). In addition, the half-maximal inhibitory concentration (IC50) in series [5] (168 h, Ovarian Cancer Sample 1, Normal Organoid, day 7, CTG) was 22.7 µM; in series [5] (168 h, Ovarian Cancer Sample 2, Normal Organoid, day 7, CTG), 1240 µM; in series [5] (168 h, Ovarian Cancer Sample 3, Normal Organoid, day 7, CTG), 2120 µM; in series [5] (336 h, Ovarian Cancer Sample 1, Normal Organoid, day 14, CTG), 0.625 µM; in series [5] (336 h, Ovarian Cancer Sample 2, Normal Organoid, day 14, CTG) it was 76.7 µM; in series [5] (336 h, Ovarian Cancer Sample 3, Normal Organoid, day 14, CTG), 1010 µM. Further, the IC50 in series [5] (504 h, Ovarian Cancer Sample 1, Normal Organoid, day 21, CTG) is 0.617 µM; in series [5] (504 h, Ovarian Cancer Sample 2, Normal Organoid, day 21, CTG) it was 89 µM; in series [5] (504 h, Ovarian Cancer Sample 3, Normal Organoid, day 21, CTG), 97.6 µM; in series [6] (168 h, Ovarian Cancer Sample 1, Tumor Organoid, day 7, CTG) it was 16.7 µM; in series [6] (168 h, Ovarian Cancer Sample 2, Tumor Organoid, day 7, CTG), 940 µM; in series [6] (168 h, Ovarian Cancer Sample 3, Tumor Organoid, day 7, CTG), 2020 µM. The IC50 in series [6] (336 h, Ovarian Cancer Sample 1, Tumor Organoid, day 14, CTG) was 20 µM; in series [6] (336 h, Ovarian Cancer Sample 2, Tumor Organoid, day 14, CTG) it was 96 µM; in series [6] (336 h, Ovarian Cancer Sample 3, Tumor Organoid, day 14, CTG), 945 µM; in series [6] (504 h, Ovarian Cancer Sample 1, Tumor Organoid, day 21, CTG), 0.588 µM; in series [6] (504 h, Ovarian Cancer Sample 2, Tumor Organoid, day 21, CTG), 9.74 µM; in series [6] (504 h, Ovarian Cancer Sample 3, Tumor Organoid, day 21, CTG), 97.6 µM. The “Neurite outgrowth sensitivity, donor comparison” value in series [3] was “Ovarian cancer patient’s neurons were found more sensitive to paclitaxel followed by breast cancer patient and healthy donor”. In addition, the “Viability of organoids (CTG assay)” value in series [4] (breast cancer organoids) and in series [6] (ovarian cancer organoids) was “significantly decreased the viability of organoids” each time. Moreover, the “Response of breast cancer PDOs to treatment” value in series [4] (few breast cancer PDOs) is listed as “sensitive”.

As a reminder, the IC50 is the concentration needed to halve the response being measured.
